Measurements from patent US20140309276A1, “Pharmaceutical Composition Comprising a Mixture of Carboxylated Oligonucleotides” (priority 2013, published 2014).

How the values were obtained:
[1] = tested on: Ehrlich's ascites adenocarcinoma; assay: Antitumor activity on Ehrlich's ascites adenocarcinoma in mice; format: in vivo, Barbados mice; settings: n = 10
Protocol: The antitumor activity of the compositions were studied in models of Ehrlich's ascites carcinoma in young Barbados mice of both sexes with weights between 15-17 g (68 individuals), which were kept on a vivarium diet.
45 mice were inoculated from a mouse with adenocarcinoma using an insulin syringe with 0.1 ml ascitic fluid in the region of the liver.
Ten mice were administered Composition in liposome form (see Table 5). Ten more mice were administered the Composition substance, and ten more were administered a 0.9% solution of sodium chloride with lipids.

[2] = tested on: benzidine skin sarcoma; assay: Anticancer activity on benzidine skin sarcoma in mice; format: in vivo, Barbados mice; settings: n = 10
Text: Composition led to a 95% degeneration of tumor cells. To confirm the in vivo antitumor activity, Composition was studied in benzidine skin sarcoma and reinjected ascites adenocarcinomas in Barbados mice. In five mice with adenocarcinomas, the distribution of the Composition liposome throughout the animals' bodies was also studied using a fluorescent probe dissolved in a phospholipid layer.
A Study of the Anticancer Activity of Composition on Benzidine Sarcoma. Before applying it to the silica gel, 7 ml of a solution of 2% benzidine and 0.9% sodium chloride was added until an opalescent suspension was formed (1 g silica gel for 5 ml NaCl solution). Twenty-five Barbados mice of both sexes with a weight of 18-20 g that were kept on a vivarium diet were administered benzidine and phorbol acetate immobilized on silica gel subcutaneously near the neck. After two weeks, 18 animals had developed tumors of different sizes in the form of a small bump on the neck near the silica gel granulomas. Each group of animals was administered the corresponding compound parenterally at a dose of 100 mcg/kg weight twice a day for two weeks, beginning at 16 days after administration of the carcinogen.

[3] = tested on: HeLa-2 cells; assay: Anticancer (cytopathic) activity in a culture of HeLa-2 cells, Minimum Active Dose; format: cell-based; settings: minimum amount causing degeneration of 90-95% of the cells; 199 medium; observed 5 days
Protocol: Anticancer activity of Composition in a cell culture was made in a culture of HeLa-2 cells. For this purpose, 2-12 mcg of Composition per ml of medium were added to the 199 medium. A culture without Composition in it was used as a control. Cultures were observed daily over the course of five days. The Minimum Active Dose (MAD) of Composition was also considered to be the minimum amount of the drug that caused a degeneration of 90-95% of the cells (Table 1.)

CC(=O)O[C@@]12CO[C@@H]1C[C@H](O)[C@@]1(C)C(=O)[C@H](O)C3=C(C)[C@@H](OC(=O)[C@H](O)[C@@H](NC(=O)OC(C)(C)C)c4ccccc4)C[C@@](O)([C@@H](OC(=O)c4ccccc4)[C@H]21)C3(C)C [Taxotere]
Time of Death of Animals after the First Injection, Average Value, Experimental Animals ([1]; in liposomes (+)): 15 ± 0.5 days | Time of Death of Animals after the First Injection, Average Value, Experimental Animals ([1]; substance without liposomes (−)): 14 ± 0.12 days | Animal Survival [2]: 28 ± 1.1 days | MAD (Minimum Active Dose) [3]: 10 µg/mL
